These are literature values, as cited in patent US10281459B2, “Protein biosensors, cross reactive sensor arrays and methods of use thereof” (YEDA RESEARCH AND DEVELOPMENT CO. LTD., priority 2012, dated 2019).

Each structure is given as a SMILES string.

The target of one data set is MMP isoforms. The conditions noted are these: broad-spectrum inhibitor of MMP isoforms; literature.
The target of the next data set is GSTs. The conditions noted are these: literature.

Take `CNC(=O)[C@@H](NC(=O)[C@H](CC(C)C)[C@H](O)C(=O)NO)C(C)(C)C` [Marimastat, marimastat]: the Ki values result at MMP isoforms is given as “low nanomolar range”.

Turning to `C=C(CC)C(=O)c1ccc(OCC(=O)O)c(Cl)c1Cl` [EA, ethacrynic acid], on GSTs, the “reported values for the inhibition of GSTs” value is given as “low micromolar range”.
